# Like-named read-outs stand apart in the source and are kept apart here.
# Tests used:
# Type in all cases: cell-based
# IDH2/R140Q = target: T1, IDH2/R140Q (Homo sapiens, UniProt P48735, R140Q); experiment: Inhibitory activity against mutant IDH2/R140Q at the cellular level (extracellular 2-HG, U87MG cells); details: glioma cell U87MG overexpressing IDH2/R140Q; for IC50: 2-HG in culture medium
# T1 construct: expressed in transfected cells; host or cells: U87MG glioma cells
# T1 sequence (P48735 40-452 R140Q): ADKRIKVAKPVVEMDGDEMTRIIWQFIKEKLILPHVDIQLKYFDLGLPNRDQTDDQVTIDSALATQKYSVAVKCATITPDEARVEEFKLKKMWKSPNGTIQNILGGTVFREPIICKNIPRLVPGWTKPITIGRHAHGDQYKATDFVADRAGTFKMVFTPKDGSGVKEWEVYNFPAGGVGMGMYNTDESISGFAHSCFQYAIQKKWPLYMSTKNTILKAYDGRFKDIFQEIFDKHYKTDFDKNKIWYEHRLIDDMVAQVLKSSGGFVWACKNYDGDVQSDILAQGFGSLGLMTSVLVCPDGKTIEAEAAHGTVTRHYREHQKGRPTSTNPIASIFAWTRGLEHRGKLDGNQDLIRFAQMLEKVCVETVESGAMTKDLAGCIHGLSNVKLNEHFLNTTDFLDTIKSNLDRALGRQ
# Method: (§1) 2-Hydroxyglutarate dehydrogenase (2HGDH) can reduce NAD+ to NADH in the presence of 2-HG. The later can be quantitatively detected by diaphorase and its substrate Resazurin.
# (§2) The cells were digested with trypsin and seeded in a 96-well plate at a density of 1×10^4 with a medium of 200 μL and cultured in a 37° C. incubator overnight. The next day, the test compound was added to a final concentration of 0.1% for DMSO. […] The protein and other components in the culture medium that may interfere with the results were filtered, and the follow-up method was used to detect the content of 2-HG.
# (§3) Extracellular 2-HG Detecting System:
# (§4) (1) 50 μL reaction system: reaction buffer (50 mM Tris pH7.5, 100 mM NaCl, 20 mM MgCl2, 0.05% BSA), in which the final concentration of NAD+ was 40 μM, the final concentration of 2HGDH was 20 nM, and the test sample was added to 5 μL of culture medium; the reaction solution was mixed and centrifuged, and the reaction was carried out for 1 hour at 25° C. in the dark;
# (2) 25 μL color development system: color development buffer (50 mM Tris pH7.5, 100 mM NaCl, 20 mM MgCl2, 0.05% BSA), in which the final concentration of diaphorase was 36 μg/mL, and the final concentration of resazurin sodium was 3 μM; 25 μL of the above-mentioned color developing solution was added to the 50 μL reaction system in (1), mixed and centrifuged, and the fluorescence value was measured immediately under Ex544/Em590.
# (§5) Preparation of standard curve of 2-HG: the stock solution of 2-HG was diluted to 20 μM with reaction buffer, and a 2-fold gradient diluting was performed for a total of 6 points. Afterwards the above-mentioned 2-HG was measured according to the extracellular 2-HG detecting system, and a standard curve was calculated and drawn.
# Calculation of Extracellular 2-HG Content:
# the fluorescence value obtained in the extracellular 2-HG detecting system was calculated using the 2-HG standard curve to calculate the content of 2-HG in the culture medium, and DMSO was used as a negative control to calculate the compound's inhibition against IDH1/R132H mutation producing the 2-HG activity.
# The experimental steps were the same as in Example 7, except that the glioma cell U87MG overexpressing the IDH1/R132H mutation was replaced with the glioma cell U87MG overexpressing the IDH2/R140Q mutation.
# IDH1/R132C = target: T2, IDH1/R132C (Homo sapiens, UniProt O75874, R132C); experiment: Inhibitory activity against mutant IDH1/R132C at the cellular level (extracellular 2-HG, HT-1080 cells)
# T2 construct: the fibrosarcoma cell HT-1080 containing the IDH1/R132C mutation; endogenous in cells; host or cells: HT-1080 fibrosarcoma cells
# T2 sequence (O75874 2-414 R132C limits assumed): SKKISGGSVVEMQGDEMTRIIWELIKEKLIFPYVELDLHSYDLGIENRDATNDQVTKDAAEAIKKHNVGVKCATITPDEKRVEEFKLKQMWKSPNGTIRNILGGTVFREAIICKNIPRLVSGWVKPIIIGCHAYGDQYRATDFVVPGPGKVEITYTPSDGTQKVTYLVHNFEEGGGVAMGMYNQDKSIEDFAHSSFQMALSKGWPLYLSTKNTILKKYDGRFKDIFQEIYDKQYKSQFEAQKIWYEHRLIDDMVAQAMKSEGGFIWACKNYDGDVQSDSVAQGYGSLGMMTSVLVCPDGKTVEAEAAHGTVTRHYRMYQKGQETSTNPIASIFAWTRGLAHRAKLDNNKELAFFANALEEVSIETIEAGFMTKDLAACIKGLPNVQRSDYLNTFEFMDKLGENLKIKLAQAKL
# Method: as §1, §2, §3, §4, §5
# IDH1/R132H = target: T3, IDH1/R132H (Homo sapiens, UniProt O75874, R132H); experiment: Inhibitory activity against mutant IDH1/R132H at the cellular level (extracellular 2-HG, U87MG cells)
# T3 construct: expressed in transfected cells; host or cells: U87MG glioma cells
# T3 sequence (O75874 whole entry R132H): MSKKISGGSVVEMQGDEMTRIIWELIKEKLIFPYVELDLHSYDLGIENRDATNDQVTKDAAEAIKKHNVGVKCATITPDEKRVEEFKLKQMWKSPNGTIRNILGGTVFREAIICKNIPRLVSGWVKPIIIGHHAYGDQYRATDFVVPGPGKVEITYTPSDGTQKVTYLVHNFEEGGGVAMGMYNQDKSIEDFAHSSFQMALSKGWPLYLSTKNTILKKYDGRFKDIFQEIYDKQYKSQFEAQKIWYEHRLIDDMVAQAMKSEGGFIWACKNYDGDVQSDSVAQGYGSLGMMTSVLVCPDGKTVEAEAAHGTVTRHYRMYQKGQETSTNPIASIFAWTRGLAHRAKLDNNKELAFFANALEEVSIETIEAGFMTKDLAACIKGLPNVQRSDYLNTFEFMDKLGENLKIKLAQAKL
# Method: as §1, §2, §3, §4, §5
# [1] = fibrosarcoma cell HT-1080 containing IDH1/R132C, 2-HG in culture medium, read-out: IC50 (nM), inhibitory activity against IDH1/R132C
# [2] = fibrosarcoma cell HT-1080 containing IDH1/R132C, 2-HG in culture medium, read-out: IC50, inhibitory activity against IDH1/R132C
# [3] = glioma cell U87MG overexpressing IDH1/R132H, 2-HG in culture medium, read-out: IC50, inhibitory activity against IDH1/R132H
# [4] = glioma cell U87MG overexpressing IDH1/R132H, 24 hours, 2-HG in culture medium, read-out: IC50 (nM), inhibitory activity against IDH1/R132H
SMILES,IC50 (IDH2/R140Q),Inhibition of IDH2/R140Q (IDH2/R140Q),IC50 (IDH1/R132C; [1]),IC50 (IDH1/R132C; [2]),IC50 (IDH1/R132H; [3]),IC50 (IDH1/R132H; [4]),IC50 (IDH1/R132C),IC50 (IDH1/R132H)
"CC(C)[C@H]1COC(=O)N1c1ccnc(N[C@@H](C)c2ccccn2)n1 [Ref1, reference compound]",> 20 µM,,,,,,500 to 10000 nM,500 to 10000 nM
"N#Cc1ccnc(N2C(=O)CC[C@H]2C(=O)N(c2cncc(F)c2)[C@H](C(=O)NC2CC(F)(F)C2)c2ccccc2Cl)c1 [AG-120, reference compound]",> 20 µM,,,,,,,

# Now from value to compound, other results behind:
IC50 (IDH2/R140Q),Inhibition of IDH2/R140Q (IDH2/R140Q),IC50 (IDH1/R132C; [1]),IC50 (IDH1/R132C; [2]),IC50 (IDH1/R132H; [3]),IC50 (IDH1/R132H; [4]),SMILES,IC50 (IDH1/R132C),IC50 (IDH1/R132H)
> 20 µM,did not inhibit,< 5 nM,≤ 5 nM,≤ 5 nM,< 5 nM,"CC(C)[C@H]1COC(=O)N1c1ccnc(N[C@@H](C)c2ccc(OCCOCCOCCOc3ccc([C@H](C)Nc4nccc(N5C(=O)OC[C@@H]5C(C)C)n4)nc3)cn2)n1 [Compound 1, (4S,4′S)-3,3′-(2,2′-(((1S,1′S)-(5,5′-(((ethane-1,2-diylbis(oxy))bis(ethane-2,1-diyl))bis(oxy))bis(pyridine-5,2-diyl))bis(ethane-1,1-diyl))bis(azanediyl))bis(pyrimidine-4,2-diyl))bis(4-isopropyloxazolidin-2-one)]",,
> 20 µM,,,,,,"CC(C)[C@H]1COC(=O)N1c1ccnc(N[C@@H](C)c2ccccc2)n1 [IDH125, reference compound]",,
> 20 µM,did not inhibit,< 5 nM,≤ 5 nM,≤ 5 nM,< 5 nM,"CC(C)[C@H]1COC(=O)N1c1ccnc(N[C@@H](C)c2ccc(OCCOCCOCCOCCOc3ccc([C@H](C)Nc4nccc(N5C(=O)OC[C@@H]5C(C)C)n4)nc3)cn2)n1 [Compound 2, (4S,4′S)-3,3′-(2,2′-(((1S,1′S)-(5,5′-((((oxybis(ethane-2,1-diyl))bis(oxy))bis(ethane-2,1-diyl))bis(oxy))bis(pyridine-5,2-diyl))bis(ethane-1,1-diyl))bis(azanediyl))bis(pyrimidine-4,2-diyl))bis(4-isopropyloxazolidin-2-one)]",,

# From patent US20220267309A1, “DIMERIC OR POLYMERIC FORM OF MUTANT IDH INHIBITOR” (EPITAS BIOSCIENCES (SHANGHAI) CO., LTD., priority 2019, published 2022)
